Our source for the Ki and Kd values is patent US20260125375A1 (Pfizer Inc., priority 2022, published 2026).

For one test, the target named is T1, CBL-B (residues 36-427) (Homo sapiens, UniProt Q13191).
T1 construct: Purified CBL-B (residues 36-427) and C-CBL (residues 46-435) proteins from baculovirus-infected insect cells; made in house; host or cells: baculovirus-infected insect cells
Briefly: Ligand Displacement Assay (LDA), HTRF competitive binding against BODIPY-labeled fluorescent tracer, CBL-B. As to conditions: geometric mean of the number of tests, read-out: CBL-B Ki (nM) GMean. Summed up:
(§1)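 Terbium-streptavidin donor on BirA-biotinylated, AviTagged protein from baculovirus-infected insect cells; BODIPY tracer as acceptor. Compound titrations were three-fold and duplicated, […] with 2% DMSO final.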
On the technique in general: TR-FRET usually uses a lanthanide donor and a delayed reading to cut background.

The target of another test is T2, C-CBL (residues 46-435) (Homo sapiens, UniProt P22681).
T2 construct: Purified CBL-B (residues 36-427) and C-CBL (residues 46-435) proteins from baculovirus-infected insect cells; made in house; host or cells: baculovirus-infected insect cells
T2 sequence (P22681 46-435): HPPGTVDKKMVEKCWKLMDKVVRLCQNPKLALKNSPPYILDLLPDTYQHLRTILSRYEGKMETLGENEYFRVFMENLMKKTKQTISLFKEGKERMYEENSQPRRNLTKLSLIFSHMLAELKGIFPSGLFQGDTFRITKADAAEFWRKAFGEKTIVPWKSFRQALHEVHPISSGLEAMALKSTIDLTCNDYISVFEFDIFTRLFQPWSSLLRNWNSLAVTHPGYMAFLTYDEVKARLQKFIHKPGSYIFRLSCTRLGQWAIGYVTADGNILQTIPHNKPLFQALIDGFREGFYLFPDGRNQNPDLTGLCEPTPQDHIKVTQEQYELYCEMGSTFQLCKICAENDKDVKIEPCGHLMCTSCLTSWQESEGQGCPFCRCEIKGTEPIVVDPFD
Kind of test: Ligand Displacement Assay (LDA), HTRF competitive binding against BODIPY-labeled fluorescent tracer, C-CBL. As to conditions: geometric mean of the number of tests, read-out: C-CBL Ki (nM) GMean. Summed up: as §1

A further test has as its target T3, WT CBL-B (36-427) (Homo sapiens, UniProt Q13191).
T3 construct: N-terminal biotinylated WT CBL-B (36-427) and C-CBL (46-435) were captured on a streptavidin (SA) coated sensor chip
Briefly: Surface Plasmon Resonance (SPR) assay, binding affinity and kinetics, CBL-B. Conditions: SPR at 10° C., biotinylated WT CBL-B (36-427) on streptavidin chip; geometric mean; read-out: CBL-B SPR Kd (nM) GMean. As for the experimental part: (§2) Surface Plasmon Resonance (SPR) Assay
(§3) The purpose of the SPR assay is to evaluate the binding affinity and kinetics of the compound of disclosure binding to CBL-B and C-CBL.
(§4) The binding affinity and kinetics of compound binding to CBL-B and C-CBL were measured by Surface Plasmon Resonance (SPR) using either Biacore S200, 8K or 8K+ (Cytiva, Marlborough, MA) instruments. N-terminal biotinylated WT CBL-B (36-427) and C-CBL (46-435) were captured on a streptavidin (SA) coated sensor chip to achieve approximately 5000 to 6000 RUs of surface density. Un-functionalized SA surfaces with no immobilized protein served as reference for binding kinetic analysis. All the samples were prepared in buffer consisting of 10 mM HEPES, 150 mM NaCl, 0.05% Tween-20, 5% glycerol, […], 2% DMSO, pH 7.2. The same buffer was used as the running buffer during the experiments. Compound binding kinetics were measured in either multi-cycle or single-cycle kinetic format.
(§5) Multi-cycle kinetic analysis (MCK): A two-fold, 10-point serial dilution of test compounds was set-up in a 96-well microplate (Greiner; Cat #650101) with a top concentration of either 10 μM or 100 μM. Binding kinetics was measured at 10° C. by injecting serial dilution of compounds onto both reference and CBL immobilized channels at a flow rate of 100 μL/min and association time of 90 seconds. Compound dissociation was monitored for >400 seconds during each cycle. No additional regeneration was used. DMSO calibration curve was obtained before and after compound analysis by injecting 0-4% of DMSO in assay buffer. A suitable compound with known affinity and kinetics was tested once in every experiment as a positive control to assess activity of the captured proteins on the surface.
(§6) Single-cycle kinetic analysis (SCK): A 3-fold, 6-point serial dilution of compounds was set-up in a deep 96-well microplate (Greiner Bio; Cat #780201) with the highest concentration of 1 μM (concentration range: […]). Binding kinetics was measured at 10° C. by injecting serial dilutions of compounds in increasing order onto reference as well as CBL immobilized channels at a flow rate of 100 μL/min and association time of 120 seconds. Compound dissociation was monitored for >5400 seconds. Two buffer blanks were also run in a single-cycle kinetics format before the compound run for double referencing. No additional regeneration was used. DMSO calibration curve was obtained before and after compound analysis by injecting 0-4% of DMSO in the assay buffer. A suitable compound with known affinity and kinetics was tested once in every experiment as a positive control to assess activity of the captured proteins on the surface.

Another test has as its target T4, C-CBL (46-435) (Homo sapiens, UniProt P22681).
T4 construct: N-terminal biotinylated WT CBL-B (36-427) and C-CBL (46-435) were captured on a streptavidin (SA) coated sensor chip
T4 sequence (P22681 46-435): T2 sequence (P22681 46-435)
Kind of test: Surface Plasmon Resonance (SPR) assay, binding affinity and kinetics, C-CBL. As to conditions: SPR at 10° C., biotinylated C-CBL (46-435) on streptavidin chip; geometric mean; read-out: C-CBL SPR Kd (nM) GMean. As for the experimental part:
as §2, §3, §4, §5, §6

As a reminder, the Ki is a dissociation constant, usually derived from enzyme kinetics or from competition with a known ligand. What is called Kd is the concentration at which binding is half-saturated. On to `CN1CC[C@H](Oc2nc(C(F)(F)F)cc3c(-c4cccc(C5(Cc6nncn6C)COC5)c4)n[nH]c23)C1` [Example J1, 7-{[(3S)-1-methylpyrrolidin-3-yl]oxy}-3-(3-{3-[(4-methyl-4H-1,2,4-triazol-3-yl)methyl]oxetan-3-yl}phenyl)-5-(trifluoromethyl)-1H-pyrazolo[3,4-c]pyridine], for which the Ki was 13.5 nM on CBL-B (residues 36-427) and 58.1 nM on C-CBL (residues 46-435). Besides, the dissociation constant Kd was 4.3 nM at WT CBL-B (36-427) and 36.7 nM on C-CBL (46-435).

On to `Cn1cnnc1[C@@H](c1cccc(-c2n[nH]c3c(CN[C@H]4CC[C@H](O)C4)nc(C(F)(F)F)cc23)c1)C1CCC1` [Example D86], for which the inhibitory constant (Ki) at CBL-B (residues 36-427) was 16.1 nM; on C-CBL (residues 46-435), 106 nM. Besides, the Kd on WT CBL-B (36-427) is 6.4 nM; at C-CBL (46-435), 161 nM.

Regarding `C[C@@H]1CCCN(Cc2nc(C(F)(F)F)cc3c(-c4cccc([C@H](c5nncn5C)C5CCC5)c4)n[nH]c23)C1` [Example C108, 3-{3-[(R)-cyclobutyl(4-methyl-4H-1,2,4-triazol-3-yl)methyl]phenyl}-7-{[(3R)-3-methylpiperidin-1-yl]methyl}-5-(trifluoromethyl)-1H-pyrazolo[3,4-c]pyridine], the figures for the inhibition constant (Ki) on CBL-B (residues 36-427) and on C-CBL (residues 46-435) were 79.4 nM and 630 nM, respectively. The figures for the dissociation constant Kd on WT CBL-B (36-427) and at C-CBL (46-435) were 5.5 nM and 148 nM, respectively.

`C[C@H](CO)c1nc(C(F)(F)F)cc2c(-c3cccc([C@H](c4nncn4C)C4CCC4)c3)n[nH]c12` (single isomer, unassigned) [Example K3, (2ξ)-2-[3-{3-[(ξ)-cyclobutyl(4-methyl-4H-1,2,4-triazol-3-yl)methyl]phenyl}-5-(trifluoromethyl)-1H-pyrazolo[3,4-c]pyridin-7-yl]propan-1-ol]: the Ki is 11 nM at CBL-B (residues 36-427) and 96.5 nM on C-CBL (residues 46-435). For the same molecule, the equilibrium dissociation constant (Kd) on WT CBL-B (36-427) stood at 4 nM; at C-CBL (46-435), 160 nM.

As to `Cn1cnnc1CC1(c2cccc(-c3n[nH]c4c(CN5CC(F)C5)nc(C(F)(F)F)cc34)c2)COC1` [Example C65, 7-[(3-fluoroazetidin-1-yl)methyl]-3-(3-{3-[(4-methyl-4H-1,2,4-triazol-3-yl)methyl]oxetan-3-yl}phenyl)-5-(trifluoromethyl)-1H-pyrazolo[3,4-c]pyridine], the Ki is 21.8 nM on CBL-B (residues 36-427) and 126 nM at C-CBL (residues 46-435). The Kd is 4.9 nM on WT CBL-B (36-427) and 127 nM on C-CBL (46-435).

On to `Cn1cnnc1CC1(c2cccc(-c3n[nH]c4c(CN5C[C@H](F)[C@@H](F)C5)nc(C(F)(F)F)cc34)c2)COC1` [Example C68, 7-{[(3S,4S)-3,4-difluoropyrrolidin-1-yl]methyl}-3-(3-{3-[(4-methyl-4H-1,2,4-triazol-3-yl)methyl]oxetan-3-yl}phenyl)-5-(trifluoromethyl)-1H-pyrazolo[3,4-c]pyridine], for which the inhibition constant Ki at CBL-B (residues 36-427) was 24.8 nM; on C-CBL (residues 46-435), 124 nM. Moreover, the Kd at WT CBL-B (36-427) was found to be 10.7 nM; at C-CBL (46-435), 122 nM.

For the molecule `CC(O)c1nc(C(F)(F)F)cc2c(-c3cccc(C4(Cc5nncn5C)COC4)c3)n[nH]c12` (single isomer, unassigned) [Example K11, (1ξ)-1-[3-(3-{3-[(4-methyl-4H-1,2,4-triazol-3-yl)methyl]oxetan-3-yl}phenyl)-5-(trifluoromethyl)-1H-pyrazolo[3,4-c]pyridin-7-yl]ethan-1-ol], the values for the Ki at CBL-B (residues 36-427) and at C-CBL (residues 46-435) were 31.2 nM and 119 nM, respectively. In addition, the equilibrium dissociation constant (Kd) on WT CBL-B (36-427) came out at 11.7 nM; at C-CBL (46-435) it was 199 nM.

On to `C[C@@H](c1nc(C(F)(F)F)cc2c(-c3cccc(C4(Cc5nncn5C)COC4)c3)n[nH]c12)N1CCNC(=O)C1` (single isomer, unassigned) [Example D51], for which the Ki on CBL-B (residues 36-427) was 5.7 nM; on C-CBL (residues 46-435), 19.6 nM. Moreover, the values for the Kd on WT CBL-B (36-427) and on C-CBL (46-435) were 2.7 nM and 15 nM, respectively.

With `CC(NC1CC(F)(F)C1)c1nc(C(F)(F)F)cc2c(-c3cccc(C4(Cc5nncn5C)COC4)c3)n[nH]c12` (single isomer, unassigned) [Example C94, 3,3-difluoro-N-{(1ξ)-1-[3-(3-{3-[(4-methyl-4H-1,2,4-triazol-3-yl)methyl]oxetan-3-yl}phenyl)-5-(trifluoromethyl)-1H-pyrazolo[3,4-c]pyridin-7-yl]ethyl}cyclobutan-1-amine], the inhibition constant (Ki) came out at 2.8 nM at CBL-B (residues 36-427) and 14.9 nM at C-CBL (residues 46-435). Further, the dissociation constant (Kd) at WT CBL-B (36-427) was determined as 2.5 nM; on C-CBL (46-435) it was 15 nM.

`CCNCc1nc(C(F)(F)F)cc2c(-c3cccc([C@H](c4nncn4C)C4CCC4)c3)n[nH]c12` [Example D81]: the Ki on CBL-B (residues 36-427) was 25.7 nM; on C-CBL (residues 46-435), 191 nM. Moreover, the equilibrium dissociation constant (Kd) on WT CBL-B (36-427) came out at 5.6 nM; at C-CBL (46-435), 206 nM.

Take `Cn1cnnc1[C@@H](c1cccc(-c2n[nH]c3c(CNC4CCNC(=O)C4)nc(C(F)(F)F)cc23)c1)C1CCC1` (single isomer, unassigned) [Example C88]: the Ki at CBL-B (residues 36-427) came out at 7.2 nM; on C-CBL (residues 46-435), 132 nM. Further, the figures for the dissociation constant (Kd) on WT CBL-B (36-427) and on C-CBL (46-435) were 4.8 nM and 59.7 nM, respectively.

For the molecule `Cn1cnnc1CC1(c2cccc(-c3n[nH]c4c(CN5C[C@@H](F)[C@@H](F)C5)nc(C(F)(F)F)cc34)c2)COC1` [Example C67, 7-{[(3R,4S)-3,4-difluoropyrrolidin-1-yl]methyl}-3-(3-{3-[(4-methyl-4H-1,2,4-triazol-3-yl)methyl]oxetan-3-yl}phenyl)-5-(trifluoromethyl)-1H-pyrazolo[3,4-c]pyridine], the inhibition constant (Ki) on CBL-B (residues 36-427) was found to be 12.6 nM; at C-CBL (residues 46-435), 72.1 nM. Also, the Kd stood at 4.4 nM at WT CBL-B (36-427) and 51 nM on C-CBL (46-435).

For the molecule `Cn1cnnc1CC1(c2cccc(-c3n[nH]c4c(CN[C@@H]5CCC(F)(F)C5)nc(C(F)(F)F)cc34)c2)COC1` [Example C60, (1R)-3,3-difluoro-N-{[3-(3-{3-[(4-methyl-4H-1,2,4-triazol-3-yl)methyl]oxetan-3-yl}phenyl)-5-(trifluoromethyl)-1H-pyrazolo[3,4-c]pyridin-7-yl]methyl}cyclopentan-1-amine], the Ki at CBL-B (residues 36-427) was determined as 10.7 nM; on C-CBL (residues 46-435) it was 57.5 nM. The Kd on WT CBL-B (36-427) was found to be 5.1 nM; on C-CBL (46-435), 41.7 nM.

Consider `CC(=O)NCC(C)c1nc(C(F)(F)F)cc2c(-c3cccc([C@H](c4nncn4C)C4CCC4)c3)n[nH]c12` (single isomer, unassigned) [Example M4], for which the Ki at CBL-B (residues 36-427) was determined as 20.5 nM; at C-CBL (residues 46-435), 157 nM. For the same molecule, the Kd amounted to 10.3 nM at WT CBL-B (36-427) and 250 nM on C-CBL (46-435).

In the case of `C[C@H](c1nc(C(F)(F)F)cc2c(-c3cccc(C4(Cc5nncn5C)COC4)c3)n[nH]c12)N1CCCC1` (single isomer, unassigned) [Example D48], the Ki on CBL-B (residues 36-427) came out at 16.1 nM; on C-CBL (residues 46-435), 44.9 nM. In addition, the Kd at WT CBL-B (36-427) turned out to be 9.3 nM; at C-CBL (46-435), 74.6 nM.
